The values that follow come from patent publication US8022206B2 (OSI Pharmaceuticals, LLC, priority 2008, dated 2011).

The target of one assay is RON (human) (Homo sapiens, UniProt Q04912). The assay can be described thus: RON (human) AlphaScreen kinase assay, Km of ATP. Format: biochemical. The conditions noted are these: AlphaScreen, Km of ATP; read-out: RON biochemical IC50. The gist of the method: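 Detection used PT66 AlphaScreen beads added in Tris pH 7.5/NaCl/EDTA/BSA buffer, read after 1 h incubation. Vehicle-only DMSO wells served as controls.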
Chain of RON (human) (Q04912 25-1400): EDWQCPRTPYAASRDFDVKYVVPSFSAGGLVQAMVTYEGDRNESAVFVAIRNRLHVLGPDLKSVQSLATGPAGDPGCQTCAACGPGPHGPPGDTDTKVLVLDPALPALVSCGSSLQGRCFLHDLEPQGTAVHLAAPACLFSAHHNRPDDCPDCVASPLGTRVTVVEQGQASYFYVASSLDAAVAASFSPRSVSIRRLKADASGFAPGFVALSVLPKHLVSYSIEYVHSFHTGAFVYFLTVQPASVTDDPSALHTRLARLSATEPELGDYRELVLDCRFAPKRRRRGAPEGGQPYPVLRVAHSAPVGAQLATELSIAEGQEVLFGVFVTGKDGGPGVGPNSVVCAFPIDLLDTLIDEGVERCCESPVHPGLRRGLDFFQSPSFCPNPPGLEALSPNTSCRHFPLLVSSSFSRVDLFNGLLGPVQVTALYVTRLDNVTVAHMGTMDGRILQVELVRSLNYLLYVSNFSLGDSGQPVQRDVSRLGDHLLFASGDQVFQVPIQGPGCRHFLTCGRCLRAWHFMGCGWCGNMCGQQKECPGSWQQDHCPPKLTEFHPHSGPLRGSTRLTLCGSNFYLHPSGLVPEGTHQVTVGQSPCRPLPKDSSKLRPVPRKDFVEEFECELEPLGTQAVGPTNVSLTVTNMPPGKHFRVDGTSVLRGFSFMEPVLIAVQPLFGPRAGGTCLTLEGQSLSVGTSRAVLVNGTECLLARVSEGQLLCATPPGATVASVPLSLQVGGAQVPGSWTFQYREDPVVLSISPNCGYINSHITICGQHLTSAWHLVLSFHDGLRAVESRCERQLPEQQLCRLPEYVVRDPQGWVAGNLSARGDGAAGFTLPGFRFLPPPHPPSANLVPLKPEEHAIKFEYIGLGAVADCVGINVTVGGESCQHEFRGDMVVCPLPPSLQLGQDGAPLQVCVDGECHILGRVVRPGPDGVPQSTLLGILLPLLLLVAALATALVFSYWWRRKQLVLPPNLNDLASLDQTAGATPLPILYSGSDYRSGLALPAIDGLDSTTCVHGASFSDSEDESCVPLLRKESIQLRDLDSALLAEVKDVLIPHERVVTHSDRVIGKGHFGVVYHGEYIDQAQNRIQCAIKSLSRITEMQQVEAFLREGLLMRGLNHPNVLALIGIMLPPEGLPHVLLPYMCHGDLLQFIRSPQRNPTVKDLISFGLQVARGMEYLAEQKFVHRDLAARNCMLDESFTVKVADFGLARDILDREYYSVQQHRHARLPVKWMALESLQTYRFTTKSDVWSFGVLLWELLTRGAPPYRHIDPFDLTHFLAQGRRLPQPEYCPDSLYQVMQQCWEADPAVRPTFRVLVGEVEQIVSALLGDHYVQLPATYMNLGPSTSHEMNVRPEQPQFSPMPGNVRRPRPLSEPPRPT
On the technique in general: In Alpha technology, singlet oxygen from a donor bead excites a nearby acceptor bead.

Another assay concerns the target MET (human) (Homo sapiens, UniProt P08581). Description: MET (human) AlphaScreen kinase assay, Km of ATP. Format: biochemical. To be noted: AlphaScreen, Km of ATP; read-out: Met biochemical IC50. The gist of the method:
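Human MET at lot-optimised concentration in 50 mM Tris pH 7.4 buffer with 1 mM DTT, compound at 1% DMSO final; enzyme starts the reaction, 60 min at RT.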

Chain of MET (human) (P08581 25-1390): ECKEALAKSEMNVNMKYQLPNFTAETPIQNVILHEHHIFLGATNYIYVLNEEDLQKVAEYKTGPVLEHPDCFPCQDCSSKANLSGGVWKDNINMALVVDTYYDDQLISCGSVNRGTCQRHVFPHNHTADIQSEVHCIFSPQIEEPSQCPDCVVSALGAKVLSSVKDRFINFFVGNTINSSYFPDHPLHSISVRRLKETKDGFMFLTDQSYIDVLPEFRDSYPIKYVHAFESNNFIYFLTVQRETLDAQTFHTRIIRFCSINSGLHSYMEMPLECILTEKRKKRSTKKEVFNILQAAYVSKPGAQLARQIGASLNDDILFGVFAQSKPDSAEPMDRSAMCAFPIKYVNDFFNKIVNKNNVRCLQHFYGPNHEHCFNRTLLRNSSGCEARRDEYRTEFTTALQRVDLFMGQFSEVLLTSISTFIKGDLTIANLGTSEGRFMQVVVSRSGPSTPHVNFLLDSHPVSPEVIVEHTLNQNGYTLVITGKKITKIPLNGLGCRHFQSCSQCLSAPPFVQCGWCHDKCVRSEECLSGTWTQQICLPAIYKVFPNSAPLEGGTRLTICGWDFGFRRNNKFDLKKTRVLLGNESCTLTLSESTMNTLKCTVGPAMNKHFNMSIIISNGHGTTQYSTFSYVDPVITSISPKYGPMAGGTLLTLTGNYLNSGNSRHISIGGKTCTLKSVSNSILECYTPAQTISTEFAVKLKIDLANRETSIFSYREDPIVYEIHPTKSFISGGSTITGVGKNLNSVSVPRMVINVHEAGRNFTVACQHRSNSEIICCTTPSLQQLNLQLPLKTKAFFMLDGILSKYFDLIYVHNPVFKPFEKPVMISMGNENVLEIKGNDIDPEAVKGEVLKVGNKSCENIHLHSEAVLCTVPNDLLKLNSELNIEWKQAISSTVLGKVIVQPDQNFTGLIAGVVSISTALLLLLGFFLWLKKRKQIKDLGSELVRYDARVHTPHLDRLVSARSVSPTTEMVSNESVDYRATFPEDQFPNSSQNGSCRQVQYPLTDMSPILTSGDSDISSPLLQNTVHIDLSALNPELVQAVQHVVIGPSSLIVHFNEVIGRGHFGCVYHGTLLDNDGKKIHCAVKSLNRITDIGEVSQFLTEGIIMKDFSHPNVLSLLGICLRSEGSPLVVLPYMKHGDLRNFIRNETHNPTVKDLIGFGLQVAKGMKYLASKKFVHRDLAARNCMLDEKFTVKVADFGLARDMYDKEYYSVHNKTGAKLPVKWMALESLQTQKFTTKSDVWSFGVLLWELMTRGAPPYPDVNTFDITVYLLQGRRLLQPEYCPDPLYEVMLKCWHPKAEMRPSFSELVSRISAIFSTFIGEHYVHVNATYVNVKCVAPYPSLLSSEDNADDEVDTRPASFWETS

On to `Cn1c(Cc2ccccc2)ncc(-c2ccc(COc3c(N)ncc4c(Br)coc34)c(F)c2)c1=O` [Example 466, 5-[4-(6-Amino-3-bromofuro[3,2-c]pyridin-7-yloxymethyl)-3-fluorophenyl]-2-benzyl-3-methyl-3H-pyrimidin-4-one], for which the IC50 at RON (human) and on MET (human) was 0.5 to 5 µM throughout.

Turning to `Cn1c(Cc2ccccc2)ncc(-c2ccc(COc3c(N)ncc4ccoc34)cc2)c1=O` [Example 467, 5-[4-(6-Aminofuro[3,2-c]pyridin-7-yloxymethyl)phenyl]-2-benzyl-3-methyl-3H-pyrimidin-4-one], the IC50 – broadly, the concentration that inhibits the measured activity by half – at RON (human) is 5 to 20 µM; at MET (human) it was greater than 20 µM.

Take `Cn1c(Cc2ccccc2)ncc(-c2ccc(COc3c(N)ncc4ccoc34)c(F)c2)c1=O` [Example 468, 5-[4-(6-Aminofuro[3,2-c]pyridin-7-yloxymethyl)-3-fluorophenyl]-2-benzyl-3-methyl-3H-pyrimidin-4-one]: the IC50 at RON (human) and on MET (human) was 5 to 20 µM throughout.

With `C[C@@H](Oc1c(N)ncc2c(-c3cnn(C4CCNCC4)c3)coc12)c1nnc2ccc(-c3cnn(C)c3)nn12` [Example 469, 7-{(1R)-1-[6-(1-methyl-1H-pyrazol-4-yl) [1,2,4]triazolo[4,3-b]pyridazin-3-yl]ethoxy}-3-[1-(piperidin-4-yl)-1H-pyrazol-4-yl]furo[3,2-c]pyridin-6-amine], the IC50 on RON (human) is 5 to 20 µM; on MET (human) it was less than 0.5 µM.

As for `C[C@@H](Oc1c(N)ncc2ccoc12)c1nnc2ccc(-c3cnn(C)c3)nn12` [Example 470, 7-{(1R)-1-[6-(1-methyl-1H-pyrazol-4-yl) [1,2,4]triazolo[4,3-b]pyridazin-3-yl]ethoxy}furo[3,2-c]pyridin-6-amine], the IC50 was greater than 20 µM at RON (human) and 0.5 to 5 µM on MET (human).

For the compound `C[C@@H](Oc1c(N)ncc2ccoc12)c1nnc2ccc(-c3ccccc3)nn12` [Example 471, 7-[(1R)-1-(6-phenyl[1,2,4]triazolo[4,3-b]pyridazin-3-yl)ethoxy]furo[3,2-c]pyridin-6-amine], the values for the IC50 at RON (human) and on MET (human) were greater than 20 µM and 5 to 20 µM, respectively.

Regarding `Cn1cc(-c2ccc3nnc(COc4c(N)ncc5ccoc45)n3n2)cn1` [Example 472, 7-{[6-(1-methyl-1H-pyrazol-4-yl) [1,2,4]triazolo[4,3-b]pyridazin-3-yl]methoxy}furo[3,2-c]pyridin-6-amine], the IC50 was in the range of 5 to 20 µM on RON (human) and 0.5 to 5 µM at MET (human).

With `Nc1ncc2ccoc2c1OCc1nnc2ccc(-c3ccccc3)nn12` [Example 473, 7-[(6-phenyl[1,2,4]triazolo[4,3-b]pyridazin-3-yl)methoxy]furo[3,2-c]pyridin-6-amine], the IC50 is greater than 20 µM on RON (human) and 0.5 to 5 µM on MET (human).

Turning to `C[C@H](Oc1c(N)ncc2ccoc12)c1nnc2ccc(-c3cnn(C)c3)nn12` [Example 474, 7-{(1S)-1-[6-(1-methyl-1H-pyrazol-4-yl) [1,2,4]triazolo[4,3-b]pyridazin-3-yl]ethoxy}furo[3,2-c]pyridin-6-amine], the figures for the IC50 at RON (human) and at MET (human) were greater than 20 µM and 0.5 to 5 µM, respectively.

For `C[C@H](Oc1c(N)ncc2ccoc12)c1nnc2ccc(-c3ccccc3)nn12` [Example 475, 7-[(1S)-1-(6-phenyl[1,2,4]triazolo[4,3-b]pyridazin-3-yl)ethoxy]furo[3,2-c]pyridin-6-amine], the IC50 at RON (human) was greater than 20 µM; at MET (human) it was 5 to 20 µM.

In the case of `C[C@@H](Oc1c(N)ncc2c(-c3cnn(C4CCNCC4)c3)coc12)c1nnc2ccc(-c3ccccc3)nn12` [Example 476, 7-[(1R)-1-(6-phenyl[1,2,4]triazolo[4,3-b]pyridazin-3-yl)ethoxy]-3-[1-(piperidin-4-yl)-1H-pyrazol-4-yl]furo[3,2-c]pyridin-6-amine], the IC50 at RON (human) is 0.5 to 5 µM; on MET (human), less than 0.5 µM.

With `C[C@H](Oc1c(N)ncc2c(-c3cnn(C4CCNCC4)c3)coc12)c1nnc2ccc(-c3ccccc3)nn12` [Example 478, 7-[(1S)-1-(6-phenyl[1,2,4]triazolo[4,3-b]pyridazin-3-yl)ethoxy]-3-[1-(piperidin-4-yl)-1H-pyrazol-4-yl]furo[3,2-c]pyridin-6-amine], the IC50 at RON (human) is greater than 20 µM; at MET (human) it was 0.5 to 5 µM.

Regarding `C[C@H](Oc1c(N)ncc2c(-c3cnn(C4CCNCC4)c3)coc12)c1nnc2ccc(-c3cnn(C)c3)nn12` [Example 479, 7-{(1S)-1-[6-(1-methyl-1H-pyrazol-4-yl) [1,2,4]triazolo[4,3-b]pyridazin-3-yl]ethoxy}-3-[1-(piperidin-4-yl)-1H-pyrazol-4-yl]furo[3,2-c]pyridin-6-amine], the values for the IC50 on RON (human) and on MET (human) were 5 to 20 µM and 0.5 to 5 µM, respectively.
